Results taken from PMC6984732, “Thymidine phosphorylase and prostrate cancer cell proliferation inhibitory activities of synthetic 4-hydroxybenzohydrazides: In vitro, kinetic, and in silico studies” (PLoS ONE, 2020).
Like-named read-outs stand apart in the source and are kept apart here.

What was measured:
[1] = target: T1, thymidine phosphorylase (TP) (Escherichia coli, UniProt P07650); experiment: Thymidine phosphorylase inhibition assay (spectrophotometric, 290 nm); type: biochemical, E. coli; conditions: for inhibition: read-out: Percent Inhibition of thymidine phosphorylase, 10 μL of test compound (0.5 mM in dimethylsulfoxide) per well; for inhibition / inhibition at 500 µM (stock): <50% regarded inactive; for inhibition at 500 µM (stock): 10 μL of test compound (0.5 mM in dimethylsulfoxide) per well, read-out: Percent Inhibition of thymidine phosphorylase; for IC50: recombinant TP expressed in E. coli, substrate thymidine, pH 7.0, 30°C, N.A. = not active, read-out: IC50 (μM ± SEM), thymidine phosphorylase inhibition
T1 construct: purchased Sigma Aldrich, USA; host or cells: E. coli
Procedure: Since human TP is not commercially available, we used commercially available recombinant TP (expressed in E. coli) enzyme. Primary sequence of TP is mostly conserved throughout the evolution and mammalian TP share 39% sequence similarity with TP of E. coli. The mammalian enzyme also shares 65–70% similarity with the active site residues of E. coli TP enzyme.
Assay for TP inhibition was performed spectrophotometrically, following the method of Bera et al. with some modifications. Enzyme TP catalyzed the reversible phosphorolysis of thymidine to thymine and 2-deoxyribose-1-phosphate. Reaction mixture contained 150 μL of potassium phosphate buffer (pH 7.0, 50 mM), 20 μL of enzyme (0.058 U/well), and 10 μL of test compound (0.5 mM in dimethylsulfoxide). The reaction mixture was incubated for 10 min at 30°C. 20 μL of substrate (1.5 mM) was then added and change in absorbance was recorded after every minute for a total time period of 10 minutes at 290 nm in ELISA plate reader (Spectra Max-340, Molecular Devices, CA, USA).
We have used the 96-well UV-plates, purchased from Corning (Catalogue No. COSTAR 3635, Lot No. 00912050). […] We then added the substrate (thymidine), and recorded the final readings.

[2] = target: T1, thymidine phosphorylase (TP); experiment: Kinetic studies on thymidine phosphorylase (Lineweaver-Burk, secondary re-plot, Dixon plot); type: biochemical, E. coli; conditions: thymidine as variable substrate; for Inhibition Type: from Lineweaver-Burk plot
Procedure: Kinetic studies were carried out to identify the mechanism of inhibition by these compounds. Inhibitor could bind with the enzyme in multiple ways, such as in competitive, non-competitive, mixed or uncompetitive way. In kinetic assay, the enzyme (0.058 U/200 μL) was incubated with different concentrations of inhibitor for 10 min at 30°C. The reaction was then initiated by adding different concentrations (0.1875–1.5 mM) of substrate (thymidine), and the resulting degradation of thymidine was measured continuously at 290 nm for 10 min on ELISA plate reader. Every experiment was run in triplicate.
Lineweaver-Burk plot was plotted to determine the type of inhibition. This was accomplished by plotting the reciprocal of the rate of reaction against the reciprocal of the substrate concentration. Ki values were determined by secondary re-plot of Lineweaver-Burk plot, and reconfirmed by Dixon plot.

[3] = tested on: mouse fibroblast (3T3) cells; experiment: MTT anti-proliferative (cytotoxicity) assay, 3T3 cells; type: cell-based; conditions: mouse fibroblast normal cell line, read-out: IC50 ± Standard Deviation, 3T3 Cell Line
Procedure: (§1) Anti-proliferative activity of active compounds was evaluated by using the standard MTT (3-[4,5-dimethylthiazole-2-yl]-2,5-diphenyl-tetrazolium bromide) colorimetric assay in 96-well plate.
(§2) It is a colorimetric assay that measures the reduction of MTT by mitochondrial enzyme i.e. succinate dehydrogenase. The MTT enters into the mitochondria of cell, where it is reduced to an insoluble formazan salt. As reduction of MTT can only occur in metabolically active cells, the level of activity is actually a measure of the viability of the cells.
(§3) Mouse fibroblast normal cell line 3T3, and prostate cancer line (PC3) were cultured separately in DMEM, supplemented with 5% of FBS, 100 IU/mL of penicillin and 100 μg/mL of streptomycin, and kept at 37°C in 5% CO2 incubator. For the preparation of cell culture, 100 μL/well of cell solution (5 x 10^4 cells/mL) was added into 96-well plate. The plate was incubated for overnight, and fresh medium was added after the removal of old medium. The test compounds were also added in different concentrations into the plate, and again incubated for 48 h. After the completion of this incubation period, 200 μL MTT (0.5 mg/mL) was added, and plate was again incubated for 4 h, after this final incubation, 100 μL of DMSO was added to each well. The level of MTT reduction to formazan was evaluated by change in absorbance at 540 nm for 3T3, and 570 nm for PC3 using a micro-plate reader (Spectra Max plus, Molecular Devices, CA, USA).

[4] = tested on: prostate cancer (PC3) cells; experiment: MTT anti-proliferative assay, PC3 cells; type: cell-based; conditions: Homo sapiens, PC-3, 48 h incubation, prostate cancer cell line, read-out: IC50 ± Standard Deviation, PC3 Cell Line
Procedure: as §1, §2, §3

T1 sequence (P07650 whole entry): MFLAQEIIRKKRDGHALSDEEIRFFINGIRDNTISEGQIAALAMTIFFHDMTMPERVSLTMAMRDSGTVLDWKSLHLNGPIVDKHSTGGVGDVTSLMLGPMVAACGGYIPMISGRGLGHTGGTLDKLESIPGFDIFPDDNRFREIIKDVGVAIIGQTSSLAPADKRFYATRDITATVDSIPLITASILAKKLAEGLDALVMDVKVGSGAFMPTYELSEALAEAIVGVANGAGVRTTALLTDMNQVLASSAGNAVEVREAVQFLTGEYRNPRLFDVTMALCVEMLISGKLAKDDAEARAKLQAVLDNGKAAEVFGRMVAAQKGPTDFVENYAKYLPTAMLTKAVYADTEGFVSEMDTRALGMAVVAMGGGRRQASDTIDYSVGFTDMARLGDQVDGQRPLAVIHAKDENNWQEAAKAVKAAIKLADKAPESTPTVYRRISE

SMILES | inhibition [1] | IC50 ([3]; NIH3T3, 48 h incubation) | IC50 [4] | other results
O=c1[nH]c(=O)c2cc[nH]c2[nH]1 [7-Deazaxanthine, reference compound] | 99% |  |  | Inhibition Type [2]: Non-competitive
O=C(N/N=C/c1ccccc1O)c1ccc(O)cc1 [Compound 1, 4-Hydroxyl-N'-[(E)-(2^′-hydroxylphenyl)methylidene]benzohydrazide] | 99.6% | 13.1 ± 0.3 µM | 7.5 ± 0.4 µM | 
O=C(N/N=C/c1cccc(O)c1O)c1ccc(O)cc1 [Compound 2, N'-[(E)-(2^′,3^′-Dihydroxylphenyl)methylidene]-4-hydroxylbenzohydrazide] | 99.9% | 23 ± 1 µM | 7.6 ± 0.4 µM | 
O=C(N/N=C/c1ccc(O)c(O)c1)c1ccc(O)cc1 [Compound 3, N'-[(E)-(3^′,4^′-Dihydroxylphenyl)methylidene]-4-hydroxylbenzohydrazide] | 99.3% | 23.5 ± 1.1 µM | > 30 µM | Inhibition Type [2]: Uncompetitive
O=C(N/N=C/c1c(O)cc(O)cc1O)c1ccc(O)cc1 [Compound 4, 4-Hydroxyl-N'-[(E)-(2^′,4^′,6^′-trihydroxylphenyl)methylidene]benzohydrazide] |  |  |  | inhibition at 500 µM (stock) [1]: 8%
O=C(N/N=C/c1ccc(O)c(O)c1O)c1ccc(O)cc1 [Compound 5, 4-Hydroxyl-N'-[(E)-(2^′,3^′,4^′-trihydroxylphenyl)methylidene]benzohydrazide] |  |  |  | inhibition at 500 µM (stock) [1]: 26%
O=C(N/N=C/c1cccc(O)c1)c1ccc(O)cc1 [Compound 6, 4-Hydroxyl-N'-[(E)-(3^′-hydroxylphenyl)methylidene]benzohydrazide] | 99% | > 30 µM | > 30 µM | 
O=C(N/N=C/c1cc(O)c(O)cc1O)c1ccc(O)cc1 [Compound 7, 4-Hydroxyl-N'-[(E)-(2^′,4^′,5^′-trihydroxylphenyl)methylidene]benzohydrazide] | 99% | 3.8 ± 0.4 µM | > 30 µM | 
O=C(N/N=C/c1ccc(O)cc1)c1ccc(O)cc1 [Compound 8, 4-Hydroxyl-N'-[(E)-(4^′-hydroxylphenyl)methylidene]benzohydrazide] | 99% | > 30 µM | > 30 µM | 
O=C(NN=Cc1ccc(Cl)cc1)c1ccc(O)cc1 [Compound 9, N'-[(E)-(4^′-Chlorophenyl)methylidene]-4-hydroxylbenzohydrazide] | 99% | > 30 µM | > 30 µM | IC50 [1]: 159 ± 0.4 µM; Inhibition Type [2]: Uncompetitive; Ki ([2]; secondary re-plot of Lineweaver-Burk plot, reconfirmed by Dixon plot, read-out: Ki (μM ± SEM)): 138 ± 0.009 µM
COc1ccc(/C=N/NC(=O)c2ccc(O)cc2)cc1 [Compound 10, 4-Hydroxyl-N'-{(E)-[4^′-(methoxy)phenyl]methylidene}benzohydrazide] | 99.8% | > 30 µM | > 30 µM | 
O=C(N/N=C/c1cccc(Cl)c1)c1ccc(O)cc1 [Compound 11, N'-[(E)-(3^′-Chlorophenyl)methylidene]-4-hydroxylbenzohydrazide] | 99% | > 30 µM | > 30 µM | 
COc1ccccc1/C=N/NC(=O)c1ccc(O)cc1 [Compound 12, 4-Hydroxyl-N'-{(E)-[2^′-(methoxy)phenyl]methylidene}benzohydrazide] | 99% | > 30 µM | > 30 µM | 
COc1ccc(/C=N/NC(=O)c2ccc(O)cc2)cc1OC [Compound 13, N'-{(E)-[3^′,4^′-Bis(methoxy)phenyl]methylidene}-4-hydroxylbenzohydrazide] | 99% | > 30 µM | > 30 µM | 
O=C(N/N=C/c1ccc(Br)cc1)c1ccc(O)cc1 [Compound 14, N'-[(E)-(4^′-Bromophenyl)methylidene]-4-hydroxylbenzohydrazide] | 96.6% | > 30 µM | > 30 µM | Inhibition Type [2]: Uncompetitive
O=C(N/N=C/c1ccc(Cl)cc1Cl)c1ccc(O)cc1 [Compound 15, N'-[(E)-(2^′,4^′-Dichlorophenyl)methylidene]-4-hydroxylbenzohydrazide] |  |  |  | inhibition at 500 µM (stock) [1]: 20%
Cc1ccccc1/C=N/NC(=O)c1ccc(O)cc1 [Compound 16, 4-Hydroxyl-N'-[(E)-(2^′-methylphenyl)methylidene]benzohydrazide] | 99% | > 30 µM | > 30 µM | 
COc1cccc(/C=N/NC(=O)c2ccc(O)cc2)c1O [Compound 19, 4-Hydroxyl-N'-[(E)-(2^′-hydroxyl-3^′-methoxyphenyl)methylidene]benzohydrazide] | 86.9% | 23.6 ± 0.2 µM | 9.6 ± 0.3 µM | IC50 [1]: 181.5 ± 1.6 µM
O=C(N/N=C/c1cc(Br)ccc1O)c1ccc(O)cc1 [Compound 20, N'-[(E)-(5^′-Bromo-2^′-hydroxylphenyl)methylidene]-4-hydroxylbenzohydrazide] |  |  |  | inhibition at 500 µM (stock) [1]: 38.6%
O=C(N/N=C/c1cc(Cl)ccc1O)c1ccc(O)cc1 [Compound 21, N'-[(E)-(5^′-Chloro-2^′-hydroxylphenyl)methylidene]-4-hydroxylbenzohydrazide] | 12.4% |  |  | 
COc1ccc(O)c(/C=N/NC(=O)c2ccc(O)cc2)c1 [Compound 23, 4-Hydroxyl-N'-{(E)-[2^′-hydroxyl-5^′-(methoxy)phenyl]methylidene}benzo-hydrazide] | 99.9% | 15.3 ± 0.9 µM | 10.5 ± 0.5 µM | 
CCOc1cccc(/C=N/NC(=O)c2ccc(O)cc2)c1O [Compound 24, N'-{(E)-[3^′-Ethoxy-2^′-hydroxylphenyl]methylidene}-4-hydroxylbenzohydrazide] | 82.4% | 9.4 ± 0.3 µM | 6.5 ± 0.2 µM | 
C/C(=N\NC(=O)c1ccc(O)cc1)c1ccccc1O [Compound 25, 4-Hydroxyl-N'-[(E)-1-(2^′-hydroxylphenyl)ethylidene]benzohydrazide] | 25% |  |  | 
C/C(=N\NC(=O)c1ccc(O)cc1)c1ccc(O)cc1O [Compound 26, N'-[(E)-1-(2^′,4^′-Dihydroxylphenyl)ethylidene]-4-hydroxylbenzohydrazide] | 30% |  |  | 
C/C(=N\NC(=O)c1ccc(O)cc1)c1cc(O)ccc1O [Compound 28, N'-[(E)-1-(2^′,5^′-Dihydroxylphenyl)ethylidene]-4-hydroxylbenzohydrazide] | 99.3% | 20.2 ± 0.9 µM | > 30 µM | 
C[C@@H]1C[C@@H]([C@H](O)CC2CC(=O)NC(=O)C2)C(=O)[C@@H](C)C1 [Cyclohexamide, cyclohexamide, reference compound] |  |  |  | IC50 ([3]; 48 h incubation): 0.26 ± 0.1 µM
COc1cccc2c1C(=O)c1c(O)c3c(c(O)c1C2=O)C[C@@](O)(C(=O)CO)C[C@@H]3O[C@H]1C[C@H](N)[C@H](O)[C@H](C)O1 [Doxorubicin, doxorubicin, reference compound] |  |  | 0.91 ± 0.1 µM | 
N=C1CCCN1Cc1nc(O)nc(O)c1Cl [tipiracil, reference compound] | 99% |  |  | 
